The target of series [1] is T1, hERG (Homo sapiens, UniProt Q12809). Description: in vitro. The settings on record: selective for TRPA1 over hERG. A general note: hERG is a cardiac potassium channel; its block is linked to QT prolongation.
Series [2] can be described thus: Plasma levels / pharmacokinetics in male Sprague-Dawley rat. The format is in vivo. How it is done:
Compound 200 plasma levels were determined via HPLC/MS/MS following a single intravenous bolus dose of 0.9 mg/kg, an intraperitoneal dose of 12 mg/kg (suspension), and an oral dose of 12 mg/kg (suspension) in the male Sprague-Dawley rat. […] For intraperitoneal administration, Compound 200 was formulated as a uniform suspension in CMC (carboxymethylcellulose) at a target concentration of 1 mg/mL and administered at a dose volume of 10 mL/kg. For oral administration, Compound 200 was formulated as a uniform suspension in CMC (carboxymethylcellulose), at a target concentration of 1 mg/mL, administered by gavage, at a dose volume of 10 mL/kg, to the conscious, fasted, male Sprague-Dawley rat.

The subject of series [3] is bradykinin induced tactile allodynia. The experiment in a line: Bradykinin induced pain model. Type of series: in vivo, rat. As to the method: As outlined above, the bradykinin model involves an intraplantar injection of a 5 ng/uL solution of bradykinin. Injection of the bradykinin solution typically causes a rapid sensitization. Sensitization is measured by assessing the thermal escape latency of the injected paw in response to a mild thermal stimulus delivered by a modified Hargreaves apparatus. FIGS. 1a and 1b summarize data obtained following testing of Compound 200 in the bradykinin model. This study examined the antinociceptive effects of 200 mg/kg, 50 mg/kg, and 12.5 mg/kg intraperitoneal Compound 200 on bradykinin induced tactile allodynia. […] Inhibitor or vehicle were injected intraperitoneally (IP). […] Throughout the study, general behavioral assessments were made during each period of observation. Observations included tactile allodynia (vocalization/agitation induced by light touch applied to the body surface), spontaneous vocalization, biting and chewing of body surface, loss of hind limb placing and stepping reflex, loss of hind limb weight bearing, and loss of righting reflex. Additionally, mechanical allodynia was assessed and measured. The results provided in FIGS. 1a and 1b are based on assessment of mechanical allodynia.

Series [4] concerns the target hNaV1.2 (Homo sapiens, UniProt Q99250). Description: hNaV1.2 patch clamp (Qpatch) selectivity. Type of series: cell-based. The settings on record: Table 2. A general note: The patch-clamp technique gives a direct electrical read-out from membranes.
The nature of series [5]: Stability in rat plasma. Type of series: in vitro ADME. The conditions noted are these: 37° C. How it is done: Compound 200 was stable in rat plasma for ≧1 hour at 37° C.
The target of series [6] is T1, hERG. Description: hERG patch clamp (Qpatch) selectivity. The settings on record: hERG IC50 (nM), Table 2.
In series [7] the test system is carrageenan-induced inflammation. The experiment in a line: Carrageenan model of acute inflammatory pain (paw volume). The format is in vivo, rat. The conditions noted are these: IP, carrageenan injected paw. How it is done: In this study, the drug administered was either a TRPA1 inhibitor or the non-steroidal anti-inflammatory diclofenac. Following administration of both carrageenan and drug or vehicle control, paw volume was measured and used to assess decreased inflammation.
On the technique in general: The carrageenan paw model is a standard test of acute inflammation.

In series [8] the target is T2, hTRPV3 (Homo sapiens, UniProt Q8NET8).
T2 sequence (Q8NET8 1-790): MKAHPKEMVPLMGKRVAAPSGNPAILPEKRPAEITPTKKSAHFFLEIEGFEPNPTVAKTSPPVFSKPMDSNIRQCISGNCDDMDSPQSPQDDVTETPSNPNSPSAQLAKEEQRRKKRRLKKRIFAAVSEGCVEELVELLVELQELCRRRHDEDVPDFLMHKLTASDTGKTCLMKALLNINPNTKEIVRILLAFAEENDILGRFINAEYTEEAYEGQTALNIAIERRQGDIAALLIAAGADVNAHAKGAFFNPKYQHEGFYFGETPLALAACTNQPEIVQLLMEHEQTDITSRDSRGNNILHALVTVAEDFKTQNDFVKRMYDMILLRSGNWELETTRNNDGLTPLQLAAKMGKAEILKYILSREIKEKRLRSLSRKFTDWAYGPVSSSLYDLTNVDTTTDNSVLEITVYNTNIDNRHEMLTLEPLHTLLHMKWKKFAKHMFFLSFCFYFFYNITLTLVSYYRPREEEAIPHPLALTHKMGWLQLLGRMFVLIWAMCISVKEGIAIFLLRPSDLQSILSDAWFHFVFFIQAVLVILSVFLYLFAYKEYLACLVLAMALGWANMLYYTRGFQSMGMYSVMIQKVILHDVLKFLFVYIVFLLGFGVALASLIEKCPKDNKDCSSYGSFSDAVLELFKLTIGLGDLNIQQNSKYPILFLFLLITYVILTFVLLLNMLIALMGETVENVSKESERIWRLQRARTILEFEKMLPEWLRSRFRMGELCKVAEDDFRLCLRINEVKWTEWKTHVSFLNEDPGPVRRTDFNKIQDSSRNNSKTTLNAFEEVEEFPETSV
The experiment in a line: hTRPV3 patch clamp selectivity. Type of series: cell-based. The settings on record: Table 2.

For series [9], the system named is formalin model. The experiment in a line: Formalin model of pain. The format is in vivo, rat. The settings on record: both Early Phase and Late Phase, drug 15 min before formalin. As to the method:
As outlined above, the formalin model involves injection of a formalin solution intradermally or […]. Injection of formalin solution invokes a biphasic response, and thus provides a model for both nociceptive and inflammatory pain. The formalin model can be used to evaluate the effectiveness of an exemplary TRPA1 inhibitor in the treatment of pain. […] Briefly, the following protocol was followed. Male Holtzmann rats received intraplantar injections of 50 μL of 2% formalin. Paw flinching was detected by an automated sensor detecting movement of a small metal band placed on the injected hind paw. Drug or vehicle was administered approximately 15 minutes prior to the injection of formalin. The animal's response to injection of the irritant was measured by counting flinches per minutes during the Early Phase (the first 5 minutes following injection of formalin), during the Late Phase (approximately 30 minutes after injection of formalin), and during the intervening pain free phase. In FIG. 2, the right most bar for each data set (Early Phase and Late Phase) represents administration of vehicle alone and the left most bar represents administration of gabapentin. […]

The mark [10] stands for this setting: plasma, male Sprague-Dawley rat, intravenous bolus 0.9 mg/kg.

Entries after “also recorded” stand apart in the source; their conditions may differ.

T1 sequence (Q12809 whole entry): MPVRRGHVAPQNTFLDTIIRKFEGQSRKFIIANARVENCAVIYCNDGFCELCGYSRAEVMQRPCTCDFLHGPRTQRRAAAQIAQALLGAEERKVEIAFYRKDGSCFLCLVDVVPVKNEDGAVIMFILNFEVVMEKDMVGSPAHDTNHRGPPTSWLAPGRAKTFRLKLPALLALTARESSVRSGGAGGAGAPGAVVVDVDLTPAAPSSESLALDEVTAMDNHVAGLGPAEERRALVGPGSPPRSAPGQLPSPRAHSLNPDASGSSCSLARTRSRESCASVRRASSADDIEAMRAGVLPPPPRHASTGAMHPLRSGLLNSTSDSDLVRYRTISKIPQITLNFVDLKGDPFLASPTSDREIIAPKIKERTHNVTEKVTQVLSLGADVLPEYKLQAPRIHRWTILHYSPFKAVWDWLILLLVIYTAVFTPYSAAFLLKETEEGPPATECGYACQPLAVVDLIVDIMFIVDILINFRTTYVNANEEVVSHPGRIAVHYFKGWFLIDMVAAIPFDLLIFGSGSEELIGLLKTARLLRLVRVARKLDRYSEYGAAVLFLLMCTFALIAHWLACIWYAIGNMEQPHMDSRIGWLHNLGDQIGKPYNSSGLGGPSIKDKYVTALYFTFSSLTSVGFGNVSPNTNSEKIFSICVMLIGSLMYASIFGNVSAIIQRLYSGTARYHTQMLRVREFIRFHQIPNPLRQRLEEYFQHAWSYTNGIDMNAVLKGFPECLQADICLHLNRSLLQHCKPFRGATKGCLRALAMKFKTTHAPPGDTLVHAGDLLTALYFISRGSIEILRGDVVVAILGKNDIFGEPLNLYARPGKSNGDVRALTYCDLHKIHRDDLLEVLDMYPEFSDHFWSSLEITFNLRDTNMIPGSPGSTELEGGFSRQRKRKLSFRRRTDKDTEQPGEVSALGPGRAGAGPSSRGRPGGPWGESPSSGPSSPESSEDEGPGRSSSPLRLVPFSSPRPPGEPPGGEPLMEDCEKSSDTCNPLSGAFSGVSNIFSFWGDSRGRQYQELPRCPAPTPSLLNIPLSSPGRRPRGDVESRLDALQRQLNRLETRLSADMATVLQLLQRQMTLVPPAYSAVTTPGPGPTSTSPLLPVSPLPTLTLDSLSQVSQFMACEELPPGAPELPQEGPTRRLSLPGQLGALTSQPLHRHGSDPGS
Sequence of hNaV1.2 (Q99250 whole entry): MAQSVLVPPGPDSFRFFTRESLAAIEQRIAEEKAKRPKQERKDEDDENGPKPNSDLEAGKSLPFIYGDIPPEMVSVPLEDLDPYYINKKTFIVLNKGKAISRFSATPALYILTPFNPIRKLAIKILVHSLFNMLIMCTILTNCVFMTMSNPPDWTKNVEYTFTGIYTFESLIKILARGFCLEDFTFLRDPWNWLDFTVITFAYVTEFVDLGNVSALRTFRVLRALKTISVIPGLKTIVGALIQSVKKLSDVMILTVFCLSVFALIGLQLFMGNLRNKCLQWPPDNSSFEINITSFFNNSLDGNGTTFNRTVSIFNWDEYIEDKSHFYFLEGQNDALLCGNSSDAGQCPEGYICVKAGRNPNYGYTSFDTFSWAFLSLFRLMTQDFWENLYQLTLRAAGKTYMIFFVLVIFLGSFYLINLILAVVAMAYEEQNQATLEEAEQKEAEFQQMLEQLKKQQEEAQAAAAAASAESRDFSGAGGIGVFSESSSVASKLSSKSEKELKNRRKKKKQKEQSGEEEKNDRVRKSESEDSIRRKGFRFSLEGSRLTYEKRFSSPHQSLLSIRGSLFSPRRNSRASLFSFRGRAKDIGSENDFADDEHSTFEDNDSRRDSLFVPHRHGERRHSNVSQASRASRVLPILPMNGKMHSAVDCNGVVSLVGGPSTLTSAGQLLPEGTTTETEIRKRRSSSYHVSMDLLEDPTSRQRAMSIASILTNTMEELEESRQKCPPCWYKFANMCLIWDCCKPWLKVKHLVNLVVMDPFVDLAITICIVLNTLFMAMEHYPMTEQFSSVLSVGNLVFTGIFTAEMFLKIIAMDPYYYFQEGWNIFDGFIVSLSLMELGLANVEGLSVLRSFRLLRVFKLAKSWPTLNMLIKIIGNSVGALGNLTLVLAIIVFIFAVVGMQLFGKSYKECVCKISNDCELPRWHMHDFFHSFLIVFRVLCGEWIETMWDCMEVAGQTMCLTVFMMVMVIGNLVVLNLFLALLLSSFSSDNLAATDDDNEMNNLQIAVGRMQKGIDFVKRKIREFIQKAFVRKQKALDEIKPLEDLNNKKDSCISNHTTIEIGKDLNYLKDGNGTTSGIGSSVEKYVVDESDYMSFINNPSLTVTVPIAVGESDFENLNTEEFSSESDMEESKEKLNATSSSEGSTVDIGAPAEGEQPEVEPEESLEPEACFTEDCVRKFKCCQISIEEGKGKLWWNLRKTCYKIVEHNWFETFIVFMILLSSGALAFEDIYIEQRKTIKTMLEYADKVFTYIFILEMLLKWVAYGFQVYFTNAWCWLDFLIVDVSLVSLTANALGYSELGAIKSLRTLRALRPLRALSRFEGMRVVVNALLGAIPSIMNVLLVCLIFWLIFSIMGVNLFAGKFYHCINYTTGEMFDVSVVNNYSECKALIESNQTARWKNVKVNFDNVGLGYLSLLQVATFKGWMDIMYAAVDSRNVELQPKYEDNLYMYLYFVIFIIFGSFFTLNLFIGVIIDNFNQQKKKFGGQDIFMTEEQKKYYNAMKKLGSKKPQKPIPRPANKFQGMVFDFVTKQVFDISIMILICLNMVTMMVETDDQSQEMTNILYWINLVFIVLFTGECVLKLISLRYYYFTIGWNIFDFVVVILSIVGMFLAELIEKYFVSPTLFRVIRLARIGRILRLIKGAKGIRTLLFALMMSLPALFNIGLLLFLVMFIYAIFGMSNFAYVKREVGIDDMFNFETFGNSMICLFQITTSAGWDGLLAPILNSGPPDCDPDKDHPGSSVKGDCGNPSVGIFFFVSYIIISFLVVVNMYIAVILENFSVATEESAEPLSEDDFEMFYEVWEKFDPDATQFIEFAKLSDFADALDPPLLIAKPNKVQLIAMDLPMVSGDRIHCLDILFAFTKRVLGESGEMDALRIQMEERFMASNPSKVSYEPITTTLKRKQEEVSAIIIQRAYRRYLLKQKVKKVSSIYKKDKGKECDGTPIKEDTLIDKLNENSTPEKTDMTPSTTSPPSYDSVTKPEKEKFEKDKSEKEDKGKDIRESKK

Regarding `CC(C)c1ccc(NC(=O)Cn2cnc3c2c(=O)n(C)c(=O)n3C)cc1` [Compound 200, 2-(1,3-dimethyl-2,6-dioxo-1,2,3,6-tetrahydropurin-7-yl)-N-(4-isopropylphenyl)acetamide], the selectivity ratio in series [1] is at least 20. The bioavailability (in general, the share of a dose that reaches the circulation, judged against a reference dose that is usually intravenous) in [2] (male, Sprague-Dawley, plasma, fasted rat, oral suspension 12 mg/kg) is around 8%. The concentration at 45 min in series [2] (male, Sprague-Dawley, plasma, rat, oral 12 mg/kg, 45 min) was around 355 ng/mL. In addition, the clearance – broadly, a measure of how efficiently the substance is removed, as volume per time – in [2] (setting [10]) is 27 mL/min/kg. Also, the half-life (as a rule, the time in which the quantity being followed falls by half) in series [2] (setting [10]) was 32 min. For the same compound, in [2] (plasma, male Sprague-Dawley rat, intravenous bolus 0.9 mg/kg, read-out: volume of distribution), the Vd is 1.28 L/kg. The plasma levels in series [2] (rat, intraperitoneal 12 mg/kg, 15-60 min) was around 355 ng/mL. In series [3] (IP 12.5, 50, 200 mg/kg, 30 min before bradykinin), the “effect on mechanical threshold / allodynia after bradykinin injection” value is listed as “dose dependent effect; also recorded: dose dependent decrease of allodynia”. Also, the “changes in behavioral parameters” value in [3] (IP doses up to 200 mg/kg) was “no changes in behavioral parameters were noted”. Moreover, the “duration of effect on mechanical threshold” value in series [3] (IP doses up to 200 mg/kg) is “approximately 60 minutes”. The “rats with mild sedation” value in series [3] (highest dose (200 mg/kg IP)) is on record as 3 of 8. Moreover, in series [4], the “selective for TRPA1 over NaV1.2” value is reported as at least 25 fold. The IC50 (in general, the midpoint of a concentration-inhibition curve) in series [4] (read-out: hNaV1.2 IC50) was at least 30 µM; in [6], at least 20000 nM; in series [8] (read-out: hTRPV3 P1 inward IC50), above 10 µM. Moreover, the “stable in rat plasma” value in [5] was at least 1 h. The “paw volume (inflammation)” value in series [7] is “decreased”. The “selective for TRPA1 over TRPV3” value in series [8] is given as at least 5 fold. Besides, the flinches per minute result in series [9] is given as “substantially reduced”.

The values are drawn from US7671061B2, “Methods and compositions for treating pain” (Hydra Biosciences, Inc., priority 2005, dated 2010).
